# Test results from article PMC2746412 (European journal of pharmacology, 2009).
# Like-named read-outs stand apart in the source and are kept apart here.
# Experiments:
# GFP-hSERT [1] = target: T1, GFP-hSERT (Homo sapiens, UniProt P31645); assay: Inhibition of [3H]-serotonin uptake in transfected COS-7 cells; assay type: cell-based
# GFP-SmSERT-A [2] = target: T2, GFP-SmSERT-A (Schistosoma mansoni, UniProt Q3HL76); assay: cell-based; assay type: cell-based; settings: for potency difference versus SmSERTs as compared with hSERT (fold less potent at SmSERTs): SmSERTs (A and B) vs hSERT, from IC50 of Table 1
# GFP-hSERT [3] = target: T1, GFP-hSERT; assay type: cell-based
# GFP-SmSERT-A [4] = target: T2, GFP-SmSERT-A; assay: [3H]-serotonin efflux experiment in COS-7 cells
# GFP-SmSERT-B [5] = target: T3, GFP-SmSERT-B (Schistosoma mansoni, UniProt Q3I1M7); assay: [3H]-serotonin efflux experiment in COS-7 cells
# GFP-SmSERT-B [6] = target: T3, GFP-SmSERT-B; assay: cell-based
# S. mansoni sporocysts [7] = settings: treatment of the sporocyst snail stage; ref Boyle and Yoshino, 2005; cited from earlier work
# SmSERT-A = SmSERT-A (Schistosoma mansoni, UniProt Q3HL76); assay: Two-electrode voltage clamp of substrate-elicited currents in Xenopus oocytes; assay type: cell-based; settings: for substrate-elicited transport-associated currents, SmSERT-A: voltage-clamped Xenopus oocytes
# SmSERT-B = SmSERT-B (Schistosoma mansoni, UniProt Q3I1M7); assay type: cell-based; settings: for substrate-elicited transport-associated currents, SmSERT-B: voltage-clamped Xenopus oocytes
# Schistosoma infections = settings: ref Gryseels et al., 2006; cited from earlier work
# GFP-SmSERT-A [8] = target: T2, GFP-SmSERT-A; assay type: cell-based; settings: COS-7 cells
# GFP-SmSERT-B [9] = target: T3, GFP-SmSERT-B; assay type: cell-based; settings: COS-7 cells
# S. mansoni sporocysts [10] = settings: living sporocysts; ref Boyle et al., 2003; cited from earlier work
# S. mansoni adult worms = settings: ref Wood and Mansour, 1986, cited from earlier work
# [11] = read-out: IC50 for serotonin transporter substrates, hSERT
# [12] = read-out: IC50 for serotonin transporter substrates, SmSERT-A
# [13] = Imax / (Vmax * Faraday constant), same batches of oocytes
# T1 sequence (P31645 whole entry): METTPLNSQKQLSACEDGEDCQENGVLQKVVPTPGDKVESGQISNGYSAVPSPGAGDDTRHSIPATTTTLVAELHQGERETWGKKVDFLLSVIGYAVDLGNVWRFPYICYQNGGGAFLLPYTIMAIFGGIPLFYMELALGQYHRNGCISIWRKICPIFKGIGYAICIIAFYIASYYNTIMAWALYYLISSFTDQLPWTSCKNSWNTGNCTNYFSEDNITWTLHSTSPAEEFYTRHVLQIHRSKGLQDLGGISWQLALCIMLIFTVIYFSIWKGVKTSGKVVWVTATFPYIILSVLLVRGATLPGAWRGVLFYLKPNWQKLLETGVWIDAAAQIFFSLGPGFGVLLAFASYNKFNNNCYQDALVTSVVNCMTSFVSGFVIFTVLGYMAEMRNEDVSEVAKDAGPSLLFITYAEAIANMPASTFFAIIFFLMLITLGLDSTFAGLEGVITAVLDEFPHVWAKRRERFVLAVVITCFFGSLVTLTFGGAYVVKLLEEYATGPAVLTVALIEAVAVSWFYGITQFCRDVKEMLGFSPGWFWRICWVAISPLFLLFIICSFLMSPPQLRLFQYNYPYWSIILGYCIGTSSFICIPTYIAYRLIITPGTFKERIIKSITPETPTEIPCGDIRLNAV
compound,measurement,setting,value
CNC(C)Cc1ccc2c(c1)OCO2 (racemic) [(±)MDMA],IC50,GFP-hSERT [1]; [11],2700 ± 500 nM
same,IC50,GFP-SmSERT-A [2]; [12],320000 ± 162000 nM
same,"[3H]-serotonin efflux elicited by compound, hSERT",GFP-hSERT [3],able to elicit serotonin efflux
same,"[3H]-serotonin efflux elicited by compound, SmSERT-A",GFP-SmSERT-A [4],not transported
same,"[3H]-serotonin efflux elicited by compound, SmSERT-B",GFP-SmSERT-B [5],not transported
O=[N+]([O-])c1ccc2nc(N3CCNCC3)ccc2c1 [6-Nitroquipazine],IC50,GFP-hSERT [1],2 ± 0.4 nM
same,IC50,GFP-SmSERT-A [2],4 ± 2 nM
same,potency difference versus SmSERTs as compared with hSERT (fold less potent at SmSERTs),GFP-SmSERT-A [2],two-fold
same,IC50,GFP-SmSERT-B [6],4 ± 2 nM
COC(=O)[C@H]1[C@@H](OC(=O)c2ccccc2)C[C@@H]2CC[C@H]1N2C [Cocaine],IC50,GFP-SmSERT-A [2],37600 ± 16000 nM
same,IC50,GFP-SmSERT-B [6],35400 ± 7600 nM
CNCCC(Oc1ccc(C(F)(F)F)cc1)c1ccccc1 (centres unmarked) [Fluoxetine],production of daughter sporocysts,S. mansoni sporocysts [7],prevents the production of daughter sporocysts
CN(C)CCCN1c2ccccc2CCc2ccccc21 [Imipramine],IC50,GFP-SmSERT-A [2],300 ± 100 nM
same,IC50,GFP-SmSERT-B [6],300 ± 200 nM
CSc1ccc2c(c1)C(N1CCN(C)CC1)Cc1ccccc1S2 (centres unmarked) [Methiothepin],IC50,GFP-hSERT [1],6700 ± 4100 nM
same,IC50,GFP-SmSERT-A [2],1900 ± 700 nM
same,IC50,GFP-SmSERT-B [6],2200 ± 700 nM
COC(=O)[C@H]1C(c2ccc(I)cc2)C[C@@H]2CC[C@H]1N2C (some centres unmarked) [RTI-55],IC50,"GFP-hSERT [1]; read-out: IC50 for inhibiting serotonin uptake, hSERT",10 ± 10 nM
same,potency difference versus SmSERTs as compared with hSERT (fold less potent at SmSERTs),GFP-SmSERT-A [2],60 fold
same,IC50,"GFP-SmSERT-A [2]; read-out: IC50 for inhibiting serotonin uptake, SmSERT-A",600 ± 400 nM
same,IC50,"GFP-SmSERT-B [6]; read-out: IC50 for inhibiting serotonin uptake, SmSERT-B, COS-7 cells, 100 nM [3H]serotonin, 10 min, mean ± SD",600 ± 400 nM
COc1ccc2[nH]cc(C3=CCNCC3)c2c1 [RU 24969],IC50,GFP-hSERT [1],8500 ± 900 nM
same,IC50,GFP-SmSERT-A [2],180000 ± 63000 nM
same,IC50,GFP-SmSERT-B [6],165000 ± 65000 nM
same,"[3H]-serotonin efflux elicited by compound, hSERT",GFP-hSERT [3],able to elicit serotonin efflux
C[C@H](N)Cc1ccccc1 [S(+)Amphetamine],IC50,GFP-SmSERT-A [2]; [12],300000 ± 27000 nM
same,"[3H]-serotonin efflux elicited by compound, SmSERT-A",GFP-SmSERT-A [4],not transported
same,"[3H]-serotonin efflux elicited by compound, SmSERT-B",GFP-SmSERT-B [5],not transported
NCCc1c[nH]c2ccccc12 [Tryptamine],IC50,GFP-hSERT [1],1400 ± 100 nM
same,IC50,GFP-SmSERT-A [2],19600 ± 3600 nM
same,IC50,GFP-SmSERT-B [6],19300 ± 4400 nM
same,"[3H]-serotonin efflux elicited by compound, hSERT",GFP-hSERT [3],able to elicit serotonin efflux
same,"substrate-elicited transport-associated currents, SmSERT-A",SmSERT-A,elicits clear transport associated currents
same,"substrate-elicited transport-associated currents, SmSERT-B",SmSERT-B,elicits clear transport associated currents
"Cl.Cl.Clc1cccc(N2CCNCC2)c1 [m-CPP, m-1-(3-Chlorophenyl)piperazine dihydrochloride]",IC50,GFP-hSERT [1]; [11],1800 ± 300 nM
same,IC50,GFP-SmSERT-A [2]; [12],58000 ± 4000 nM
same,"[3H]-serotonin efflux elicited by compound, hSERT",GFP-hSERT [3],able to elicit serotonin efflux
same,"[3H]-serotonin efflux elicited by compound, SmSERT-A",GFP-SmSERT-A [4],not transported
same,"[3H]-serotonin efflux elicited by compound, SmSERT-B",GFP-SmSERT-B [5],not transported
O=C(C1CCCCC1)N1CC(=O)N2CCc3ccccc3C2C1 (centres unmarked) [praziquantel],activity on immature worms and eggs,Schistosoma infections,not active on immature worms and eggs
"NCCc1c[nH]c2ccc(O)cc12 [serotonin, 5-hydroxytryptamine]",transport of tritiated substrate by SmSERT-A,GFP-SmSERT-A [8]; data not shown,transport
same,"Vmax of serotonin uptake, SmSERT-A",GFP-SmSERT-A [8]; mean ± SD of three experiments,1.8 ± 1.4 pmol/min
same,Km,"GFP-SmSERT-A [8]; read-out: apparent affinity (KT / KM) for serotonin uptake, SmSERT-A, 10 min, room temperature, mean ± SD of three experiments",2.3 ± 0.9 µM
same,transport of tritiated substrate by SmSERT-B,GFP-SmSERT-B [9]; data not shown,transport
same,"Vmax of serotonin uptake, SmSERT-B",GFP-SmSERT-B [9]; mean ± SD of three experiments,1.4 ± 1.1 pmol/min
same,Km,"GFP-SmSERT-B [9]; read-out: apparent affinity (KT / KM) for serotonin uptake, SmSERT-B, 10 min, room temperature, mean ± SD of three experiments",2.2 ± 1.1 µM
same,"charges moved per serotonin molecule transported (Q/Jmax), SmSERT-A",SmSERT-A; [13],1.9 charges
same,"substrate-elicited transport-associated currents, SmSERT-A",SmSERT-A,concentration-dependent inward currents
same,"charges moved per serotonin molecule transported (Q/Jmax), SmSERT-B",SmSERT-B; [13],1.9 charges
same,"substrate-elicited transport-associated currents, SmSERT-B",SmSERT-B,concentration-dependent inward currents
same,apparent affinity for serotonin uptake in sporocysts,S. mansoni sporocysts [10],1.4 µM
same,"apparent affinity for serotonin uptake, adult female worms",S. mansoni adult worms; living adult female parasites,1.46 µM
same,"apparent affinity for serotonin uptake, adult male worms",S. mansoni adult worms; living adult male parasites,1.73 µM
